# Results taken from publication PMC2933939 (Bioorganic & medicinal chemistry, 2010).
# pIC50: −log10 of the molar value. Read-outs that look alike come from different tables or passages of the source. Non-standard residues stand in square brackets, D forms with d. Residues, ends and D or L forms follow the SMILES beside them. *: point of attachment. dNMeF = CN[C@H](Cc1ccccc1)C(=O)O; Cha = N[C@@H](CC1CCCCC1)C(=O)O; NMeK = CN[C@@H](CCCCN)C(=O)O; dNMeK = CN[C@H](CCCCN)C(=O)O; ClZ = O=C(OCc1ccccc1Cl)*; Bn = c1ccc(C*)cc1
# How the values were obtained:
# colon cancers = conditions: drug of choice for colon cancer treatment; no reference given; cited from earlier work
# [1] = tested on: HCT-116 colon cancer cells; experiment: 3H-thymidine uptake cytotoxicity assay; type: cell-based
Structure (SMILES),cytotoxicity (in words) [1],other results
"O=c1[nH]cc(F)c(=O)[nH]1 [Compound 5-FU, 5-fluorouracil]",,pIC50 (colon cancers): 5.30
"CC(C)[C@H]1NC(=O)[C@@H](Cc2ccccc2)N(C)C(=O)[C@H](Cc2ccccc2)NC(=O)[C@H](COCc2ccccc2)NC(=O)[C@H](CC2CCCCC2)NC1=O [Compound 19, Phe-N-Me-D-Phe-D-Val-Cha-Ser(Bn)] (cyclo([Cha]S(Bn)F[dNMeF][dV]))",,"half-life (Half-life (minutes) n1, n1): 45 min; half-life (Half-life (minutes) n2, n2): 30 min"
"CC(C)[C@H]1NC(=O)[C@@H](Cc2ccccc2)NC(=O)[C@H](Cc2ccccc2)NC(=O)[C@H](COCc2ccccc2)NC(=O)[C@H](CC2CCCCC2)NC1=O [Compound 20, Phe-D-Phe-D-Val-Cha-Ser(Bn)] (cyclo([Cha]S(Bn)F[dF][dV]))",little cytotoxic activity,
"CC(C)C[C@@H]1NC(=O)[C@H](C(C)C)NC(=O)[C@@H](Cc2ccccc2)N(C)C(=O)[C@H](Cc2ccccc2)NC(=O)[C@H](CCCCN)NC1=O [Compound 30, Phe-N-Me-D-Phe-Val-Leu-Lys] (cyclo(F[dNMeF]VLK))",not active,
"CC(C)C[C@@H]1NC(=O)[C@H](Cc2ccccc2)NC(=O)[C@H](CCCCN)NC(=O)[C@H](CC(C)C)NC(=O)[C@H](C(C)C)NC1=O [Compound 32, Phe-Leu-Val-Leu-Lys] (cyclo(FLVLK))",inactive,
"CC(C)C[C@@H]1NC(=O)[C@H](Cc2ccccc2)NC(=O)[C@H](CCCCN)N(C)C(=O)[C@H](CC(C)C)NC(=O)[C@H](C(C)C)NC1=O [Compound 35, Phe-Leu-Val-Leu-N-Me-Lys] (cyclo(FLVL[NMeK]))",inactive,
"CC(C)C[C@@H]1NC(=O)[C@H](Cc2ccccc2)NC(=O)[C@H](CCCCN)NC(=O)[C@H](CC(C)C)NC(=O)[C@@H](C(C)C)NC1=O [Compound 37, Phe-Leu-D-Val-Leu-Lys] (cyclo(FL[dV]LK))",inactive,
"CC(C)C[C@@H]1NC(=O)[C@H](Cc2ccccc2)NC(=O)[C@@H](Cc2ccccc2)NC(=O)[C@@H](CCCCNC(=O)OCc2ccccc2Cl)N(C)C(=O)[C@H](C(C)C)NC1=O [Compound 41, Phe-Leu-Val-N-Me-D-Lys(Cl-Cbz)-D-Phe] (cyclo(FLV[dNMeK](ClZ)[dF]))",not very potent at all,
"CC(C)C[C@@H]1NC(=O)[C@H](Cc2ccccc2)NC(=O)[C@@H](Cc2ccccc2)N(C)C(=O)[C@@H](CCCCNC(=O)OCc2ccccc2Cl)NC(=O)[C@H](C(C)C)NC1=O [Compound 42, Phe-Leu-Val-D-Lys(Cl-Cbz)-N-Me-D-Phe] (cyclo(FLV[dK](ClZ)[dNMeF]))",remarkable cytotoxicity,
